# Experimental data taken from patent US9695155B2, “Herbicidal substituted pyrimidinyloxy benzene compounds” (E. I. DU PONT DE NEMOURS AND COMPANY, priority 2013, dated 2017).
# Key:
# hairy beggarticks = experiment: Test E postemergence; assay type: in vivo, Bidens pilosa; conditions: Postemergence, scale 0 to 100
# Summary of the method: (§1)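 Response was scored visually on a 0-100 scale (100 = complete control) versus controls after 14 to 21 days in the greenhouse. Test chemicals, formulated with surfactant in a non-phytotoxic solvent mixture, had been applied preemergence to seeds in silt loam soil or postemergence to 1- to 4-leaf plants in potting medium.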
# goosegrass = experiment: Test E preemergence; assay type: in vivo, Eleusine indica; conditions: for Goosegrass plant response rating: scale 0 to 100 (0 no effect, 100 complete control); for Plant response rating, Goosegrass: scale 0 to 100, 0 no effect, 100 complete control
# Summary of the method: as §1
# arrowleaf sida [1] = experiment: Test E preemergence; assay type: in vivo, Sida rhombifolia; conditions: for Arrowleaf Sida plant response rating: scale 0 to 100 (0 no effect, 100 complete control); for Plant response rating, Arrowleaf Sida: scale 0 to 100, 0 no effect, 100 complete control
# Summary of the method: as §1
# Italian ryegrass = experiment: Test E postemergence; assay type: in vivo, Lolium multiflorum; conditions: Postemergence, scale 0 to 100
# Summary of the method: as §1
# dayflower [2] = experiment: Test E postemergence; assay type: in vivo, Commelina virginica; conditions: Postemergence, scale 0 to 100
# Summary of the method: as §1
# large (Lg) crabgrass = experiment: Test E preemergence; assay type: in vivo, Digitaria sanguinalis; conditions: for Crabgrass, Large plant response rating: scale 0 to 100 (0 no effect, 100 complete control); for Plant response rating, Crabgrass, Large: scale 0 to 100, 0 no effect, 100 complete control
# Summary of the method: as §1
# ragweed = experiment: Test E preemergence; assay type: in vivo, Ambrosia elatior; conditions: for Ragweed plant response rating: scale 0 to 100 (0 no effect, 100 complete control); for Plant response rating, Ragweed: scale 0 to 100, 0 no effect, 100 complete control
# Summary of the method: as §1
# arrowleaf sida [3] = experiment: Test E postemergence; assay type: in vivo, Sida rhombifolia; conditions: Postemergence, scale 0 to 100
# Summary of the method: as §1
# morningglory = experiment: Test E preemergence; assay type: in vivo, Ipomoea coccinea; conditions: for Morningglory plant response rating: scale 0 to 100 (0 no effect, 100 complete control); for Plant response rating, Morningglory: scale 0 to 100, 0 no effect, 100 complete control
# Summary of the method: as §1
# wild poinsettia = experiment: Test E postemergence; assay type: in vivo, Euphorbia heterophylla; conditions: Postemergence, scale 0 to 100
# Summary of the method: as §1
# palmer pigweed = experiment: Test E preemergence; assay type: in vivo, Amaranthus palmeri; conditions: for Pigweed, Palmer plant response rating: scale 0 to 100 (0 no effect, 100 complete control); for Plant response rating, Pigweed, Palmer: scale 0 to 100, 0 no effect, 100 complete control
# Summary of the method: as §1
# soybean = experiment: Test E postemergence; assay type: in vivo, Glycine max; conditions: Postemergence, scale 0 to 100
# Summary of the method: as §1
# fall panicum = experiment: Test E preemergence; assay type: in vivo, Panicum dichotomiflorum; conditions: for Panicum, Fall plant response rating: scale 0 to 100 (0 no effect, 100 complete control); for Plant response rating, Panicum, Fall: scale 0 to 100, 0 no effect, 100 complete control
# Summary of the method: as §1
# dayflower [4] = experiment: Test E preemergence; assay type: in vivo, Commelina virginica; conditions: for Dayflower, VA plant response rating: scale 0 to 100 (0 no effect, 100 complete control); for Plant response rating, Dayflower, VA: scale 0 to 100, 0 no effect, 100 complete control
# Summary of the method: as §1
# barnyardgrass = experiment: Test E preemergence; assay type: in vivo, Echinochloa crus-galli; conditions: for Barnyardgrass plant response rating: scale 0 to 100 (0 no effect, 100 complete control); for Plant response rating, Barnyardgrass: scale 0 to 100, 0 no effect, 100 complete control
# Summary of the method: as §1
# field bindweed [5] = experiment: Test E preemergence; assay type: in vivo, Convolvulus arvensis; conditions: for Field Bindweed plant response rating: scale 0 to 100 (0 no effect, 100 complete control); for Plant response rating, Field Bindweed: scale 0 to 100, 0 no effect, 100 complete control
# Summary of the method: as §1
# field bindweed [6] = experiment: Test E postemergence; assay type: in vivo, Convolvulus arvensis; conditions: Postemergence, scale 0 to 100
# Summary of the method: as §1
compound,measurement,setting,value
N#Cc1cccc(Oc2ncc(Cl)cn2)c1-n1cc(Cl)cn1 [Compound 72],"Plant response rating, Beggarticks",hairy beggarticks; 62 g ai/ha,70
same,"Plant response rating, Beggarticks",hairy beggarticks; 125 g ai/ha,80
same,Goosegrass plant response rating,goosegrass; 16 g ai/ha,0
same,Goosegrass plant response rating,goosegrass; 31 g ai/ha,60
same,Goosegrass plant response rating,goosegrass; 62 g ai/ha,80
same,"Plant response rating, Goosegrass",goosegrass; 125 g ai/ha,98
same,"Plant response rating, Goosegrass",goosegrass; 250 g ai/ha,100
same,Arrowleaf Sida plant response rating,"arrowleaf sida [1]; 16 g ai/ha, preemergence",20
same,Arrowleaf Sida plant response rating,"arrowleaf sida [1]; 31 g ai/ha, preemergence",40
same,"Plant response rating, Arrowleaf Sida","arrowleaf sida [1]; Preemergence, 62 g ai/ha",40
same,"Plant response rating, Arrowleaf Sida","arrowleaf sida [1]; preemergence, 125 g ai/ha",100
same,"Plant response rating, Arrowleaf Sida","arrowleaf sida [1]; preemergence, 250 g ai/ha",100
same,"Plant response rating, Ryegrass, Italian",Italian ryegrass; 62 g ai/ha,0
same,"Plant response rating, Ryegrass, Italian",Italian ryegrass; 125 g ai/ha,5
same,"Plant response rating, Dayflower, VA",dayflower [2]; 62 g ai/ha,50
same,"Plant response rating, Dayflower, VA",dayflower [2]; 125 g ai/ha,60
same,"Crabgrass, Large plant response rating",large (Lg) crabgrass; 16 g ai/ha,50
same,"Crabgrass, Large plant response rating",large (Lg) crabgrass; 31 g ai/ha,80
same,"Crabgrass, Large plant response rating",large (Lg) crabgrass; 62 g ai/ha,100
same,"Plant response rating, Crabgrass, Large",large (Lg) crabgrass; 125 g ai/ha,100
same,"Plant response rating, Crabgrass, Large",large (Lg) crabgrass; 250 g ai/ha,100
same,Ragweed plant response rating,ragweed; 16 g ai/ha,0
same,Ragweed plant response rating,ragweed; 31 g ai/ha,0
same,Ragweed plant response rating,ragweed; 62 g ai/ha,5
same,"Plant response rating, Ragweed",ragweed; 125 g ai/ha,50
same,"Plant response rating, Ragweed",ragweed; 250 g ai/ha,95
same,"Plant response rating, Arrowleaf Sida",arrowleaf sida [3]; 62 g ai/ha,50
same,"Plant response rating, Arrowleaf Sida",arrowleaf sida [3]; 125 g ai/ha,75
same,Morningglory plant response rating,morningglory; 16 g ai/ha,0
same,Morningglory plant response rating,morningglory; 31 g ai/ha,0
same,Morningglory plant response rating,morningglory; 62 g ai/ha,15
same,"Plant response rating, Morningglory",morningglory; 125 g ai/ha,15
same,"Plant response rating, Morningglory",morningglory; 250 g ai/ha,35
same,"Plant response rating, Poinsettia, Wild",wild poinsettia; 62 g ai/ha,55
same,"Plant response rating, Poinsettia, Wild",wild poinsettia; 125 g ai/ha,60
same,"Pigweed, Palmer plant response rating",palmer pigweed; 16 g ai/ha,95
same,"Pigweed, Palmer plant response rating",palmer pigweed; 31 g ai/ha,100
same,"Pigweed, Palmer plant response rating",palmer pigweed; 62 g ai/ha,100
same,"Plant response rating, Pigweed, Palmer",palmer pigweed; 125 g ai/ha,100
same,"Plant response rating, Pigweed, Palmer",palmer pigweed; 250 g ai/ha,100
same,"Plant response rating, Soybean",soybean; 62 g ai/ha,95
same,"Plant response rating, Soybean",soybean; 125 g ai/ha,95
same,"Panicum, Fall plant response rating",fall panicum; 16 g ai/ha,0
same,"Panicum, Fall plant response rating",fall panicum; 31 g ai/ha,65
same,"Panicum, Fall plant response rating",fall panicum; 62 g ai/ha,98
same,"Plant response rating, Panicum, Fall",fall panicum; 125 g ai/ha,100
same,"Plant response rating, Panicum, Fall",fall panicum; 250 g ai/ha,100
same,"Dayflower, VA plant response rating",dayflower [4]; 16 g ai/ha,0
same,"Dayflower, VA plant response rating",dayflower [4]; 31 g ai/ha,0
same,"Dayflower, VA plant response rating",dayflower [4]; 62 g ai/ha,35
same,"Plant response rating, Dayflower, VA",dayflower [4]; 125 g ai/ha,65
same,"Plant response rating, Dayflower, VA",dayflower [4]; 250 g ai/ha,95
same,Barnyardgrass plant response rating,"barnyardgrass; 16 g ai/ha, preemergence",0
same,Barnyardgrass plant response rating,"barnyardgrass; 31 g ai/ha, preemergence",0
same,"Plant response rating, Barnyardgrass","barnyardgrass; Preemergence, 62 g ai/ha",15
same,"Plant response rating, Barnyardgrass","barnyardgrass; preemergence, 125 g ai/ha",35
same,"Plant response rating, Barnyardgrass","barnyardgrass; preemergence, 250 g ai/ha",90
same,Field Bindweed plant response rating,field bindweed [5]; 16 g ai/ha,0
same,Field Bindweed plant response rating,field bindweed [5]; 31 g ai/ha,5
same,Field Bindweed plant response rating,field bindweed [5]; 62 g ai/ha,10
same,"Plant response rating, Field Bindweed",field bindweed [5]; 125 g ai/ha,60
same,"Plant response rating, Field Bindweed",field bindweed [5]; 250 g ai/ha,95
same,"Plant response rating, Field Bindweed",field bindweed [6]; 62 g ai/ha,70
same,"Plant response rating, Field Bindweed",field bindweed [6]; 125 g ai/ha,80
